D data for one compound are collected here from US20130273564A1, “DISPERSION INJECTION METHODS FOR BIOSENSING” (priority 2010, published 2013).

This data set relates to partially denatured carbonic anhydrase II. Conditions: sigmoidal TDi, degraded surface, 10° C., global two-site interaction model. As to the method: A second sensing surface remained uncoated to provide an accurate reference surface. […] FCI was performed by separately injecting 50 μL of each dilution at a rate of 50 μL min^−1. EDTA was excluded from the buffer to maintain the binding activity of the Zn-dependent carbonic anhydrase 11.
Two separate sigmoidal TDi assays were performed. The first sigmoidal TDi assay (FIG. 8B) was performed by injecting 250 μL of analyte sample at a flow rate of 100 μL min^−1 using a dispersion tube having a total volume capacity of 512 μL and a diameter of 0.50 mm. […] The second sigmoidal TDi assay (FIG. 8C) was performed by injecting 250 μL of analyte sample at a flow rate of 50 μL min^−1 using a dispersion tube having a total volume capacity of 512 μL and a diameter of 0.50 mm. […] The carbonic anhydrase II-coated surface was permitted to degrade at 25° C. for several days before performing the sigmoid TDi analysis. The second TDi assay was performed at 10° C. to preserve weak non-specific binding in order to mimic a realistic complex data set.

Turning to `NS(=O)(=O)c1cc(C(=O)O)c(NCc2ccco2)cc1Cl` [furosemide], the D is on record as 4.49(1)×10^−10 m^2s^−1.
